test system: K562; assay: XTT cell viability assay, K562 CML cells; type: cell-based, human; details: Homo sapiens, K562, 48 h, SD 10%, mean of three experiments
Procedure: (§1) Fifty microliters of sodium 3′-[1-phenylaminocarbonyl)-3,4-tetrazolium]-bis(4-methoxy-6-nitro) benzene sulfonic acid hydrate (XTT) reagent was added to each well. The assay is based on the cleavage of the yellow tetrazolium salt XTT to form an orange formazan dye by metabolically active cells. This bio-reduction occurs in viable cells only and is related to NAD(P)H production through glycolysis. Therefore, the amount of formazan dye measured at 490 nm directly correlated with the number of metabolically active cells reflecting cell proliferation and viability. Each assay was performed in quadruplicate.

Structure (SMILES) | IC50 [µM]
Cc1ccc2nc(NC(=O)Nc3ccccc3Cl)sc2c1 [C25] | 25
O=C(Nc1nc2ccc([N+](=O)[O-])cc2s1)Nc1ccccc1Cl [C28] | 7
CCOc1ccc2nc(NC(=O)Nc3ccccc3C)sc2c1 [C30] | 4
CCOc1ccc2nc(NC(=O)Nc3ccc(OC)cc3)sc2c1 [C33] | > 25

test system: Molm14; assay: XTT cell viability assay, Molm14 AML cells; type: cell-based, human; details: Homo sapiens, MOLM-14, 48 h, SD 10%, mean of three experiments
Procedure: as §1

Structure (SMILES) | IC50 [µM]
Cc1ccc2nc(NC(=O)Nc3ccccc3Cl)sc2c1 [C25] | 10
O=C(Nc1nc2ccc([N+](=O)[O-])cc2s1)Nc1ccccc1Cl [C28] | 10
CCOc1ccc2nc(NC(=O)Nc3ccccc3C)sc2c1 [C30] | 10
CCOc1ccc2nc(NC(=O)Nc3ccc(OC)cc3)sc2c1 [C33] | 25

test system: OCI-AML3; assay: XTT cell viability assay, OCI-AML3 AML cells; type: cell-based, human; details: Homo sapiens, OCI-AML-3, 48 h, SD 10%, mean of three experiments, read-out: IC50 L3 (AML)
Procedure: as §1

Structure (SMILES) | IC50 [µM]
Cc1ccc2nc(NC(=O)Nc3ccccc3Cl)sc2c1 [C25] | 10
O=C(Nc1nc2ccc([N+](=O)[O-])cc2s1)Nc1ccccc1Cl [C28] | 10
CCOc1ccc2nc(NC(=O)Nc3ccccc3C)sc2c1 [C30] | 7
CCOc1ccc2nc(NC(=O)Nc3ccc(OC)cc3)sc2c1 [C33] | > 25

test system: panel of human tumor cell lines; assay: XTT screening on a panel of tumor cell lines; type: cell-based; details: Homo sapiens; read-out: IC50 values for several cancer cell lines
Procedure: as §1

Structure (SMILES) | IC50 [µM]
Cc1ccc2nc(NC(=O)Nc3ccccc3Cl)sc2c1 [C25] | < 20
O=C(Nc1nc2ccc([N+](=O)[O-])cc2s1)Nc1ccccc1Cl [C28] | < 20
CCOc1ccc2nc(NC(=O)Nc3ccccc3C)sc2c1 [C30] | < 20

test system: Molm13; assay: XTT cell viability assay, Molm13 AML cells; type: cell-based, human; details: Homo sapiens, MOLM-13, 48 h, SD 10%, mean of three experiments
Procedure: as §1

Structure (SMILES) | IC50 [µM]
Cc1ccc2nc(NC(=O)Nc3ccccc3Cl)sc2c1 [C25] | 15
O=C(Nc1nc2ccc([N+](=O)[O-])cc2s1)Nc1ccccc1Cl [C28] | 5
CCOc1ccc2nc(NC(=O)Nc3ccccc3C)sc2c1 [C30] | 15
CCOc1ccc2nc(NC(=O)Nc3ccc(OC)cc3)sc2c1 [C33] | > 25

test system: CAL27; assay: XTT cell viability assay, CAL27 HNSCC cells; type: cell-based, human; details: Homo sapiens, CAL-27; XTT assay, 48 h; SD 10%; mean of three experiments; read-out: IC50 27 (HNSCC)
Procedure: as §1

Structure (SMILES) | IC50 [µM]
Cc1ccc2nc(NC(=O)Nc3ccccc3Cl)sc2c1 [C25] | 5
O=C(Nc1nc2ccc([N+](=O)[O-])cc2s1)Nc1ccccc1Cl [C28] | 7
CCOc1ccc2nc(NC(=O)Nc3ccccc3C)sc2c1 [C30] | 5
CCOc1ccc2nc(NC(=O)Nc3ccc(OC)cc3)sc2c1 [C33] | > 25

test system: OCI-AML2; assay: XTT cell viability assay, OCI-AML2 AML cells; type: cell-based, human; details: Homo sapiens, OCI-AML2, 48 h, SD 10%, mean of three experiments, read-out: IC50 L2 (AML)
Procedure: as §1

Structure (SMILES) | IC50 [µM]
Cc1ccc2nc(NC(=O)Nc3ccccc3Cl)sc2c1 [C25] | > 25
O=C(Nc1nc2ccc([N+](=O)[O-])cc2s1)Nc1ccccc1Cl [C28] | 10
CCOc1ccc2nc(NC(=O)Nc3ccccc3C)sc2c1 [C30] | 15
CCOc1ccc2nc(NC(=O)Nc3ccc(OC)cc3)sc2c1 [C33] | > 25

test system: 786-O cells; assay: Ectopic model of RCC (786-O xenograft); type: in vivo, nude (nu/nu) female mice; details: C29 100 µg i.p. three per week; danirixin 200 µg three times a week; sunitinib 50 mg/kg oral gavage five times a week
Procedure: These studies were carried out in strict accordance with the recommendations in the Guide for the Care and Use of Laboratory Animals. Our experiments were approved by the ''Comité National Institutionnel d'Ethique pour l'Animal de Laboratoire'' (reference: PEA-255 and PEA-277). Cells were injected subcutaneously into the flank of 5-week-old nude (nu/nu) female mice (Janvier). When the tumor reached 100 mm^3, mice were treated. The tumor volume was determined with a caliper (v = L*l2*0.5).
2- Seven million 786-O cells were injected subcutaneously.

Structure (SMILES) | efficacy on tumor growth, 786-O xenograft
Cc1c(F)cccc1NC(=O)Nc1ccc(Cl)c(S(=O)(=O)[C@H]2CCCNC2)c1O [danirixin, reference compound] | equivalent efficacy
CCN(CC)CCNC(=O)c1c(C)[nH]c(/C=C2\C(=O)Nc3ccc(F)cc32)c1C [sunitinib] | equivalent efficacy

test system: SKM1; assay: XTT cell viability assay, SKM1 MDS cells; type: cell-based, human; details: Homo sapiens, SKM-1, 48 h, SD 10%, mean of three experiments, read-out: IC50 SK (MDS)
Procedure: as §1

Structure (SMILES) | IC50 [µM]
Cc1ccc2nc(NC(=O)Nc3ccccc3Cl)sc2c1 [C25] | 25
O=C(Nc1nc2ccc([N+](=O)[O-])cc2s1)Nc1ccccc1Cl [C28] | 10
CCOc1ccc2nc(NC(=O)Nc3ccccc3C)sc2c1 [C30] | 15
CCOc1ccc2nc(NC(=O)Nc3ccc(OC)cc3)sc2c1 [C33] | > 25

test system: A498; assay: XTT cell viability assay, A498 RCC cells; type: cell-based, human; details: Homo sapiens, A498; XTT assay, 48 h; SD 10%; mean of three experiments; read-out: IC50 498 (Kidney RCC)
Procedure: as §1

Structure (SMILES) | IC50 [µM]
Cc1ccc2nc(NC(=O)Nc3ccccc3Cl)sc2c1 [C25] | 15
O=C(Nc1nc2ccc([N+](=O)[O-])cc2s1)Nc1ccccc1Cl [C28] | 5
CCOc1ccc2nc(NC(=O)Nc3ccccc3C)sc2c1 [C30] | 15
CCOc1ccc2nc(NC(=O)Nc3ccc(OC)cc3)sc2c1 [C33] | > 25

test system: CAL33; assay: XTT cell viability assay, CAL33 HNSCC cells; type: cell-based, human; details: Homo sapiens, CAL-33; XTT assay, 48 h; SD 10%; mean of three experiments; read-out: IC50 33 (HNSCC)
Procedure: as §1

Structure (SMILES) | IC50 [µM]
Cc1ccc2nc(NC(=O)Nc3ccccc3Cl)sc2c1 [C25] | 10
O=C(Nc1nc2ccc([N+](=O)[O-])cc2s1)Nc1ccccc1Cl [C28] | 5
CCOc1ccc2nc(NC(=O)Nc3ccccc3C)sc2c1 [C30] | 15
CCOc1ccc2nc(NC(=O)Nc3ccc(OC)cc3)sc2c1 [C33] | > 25

test system: 786-O; assay: XTT cell viability assay, 786-O RCC cells; type: cell-based, human; details: Homo sapiens, 786-0; XTT assay, 48 h; SD 10%; mean of three experiments; read-out: IC50 786 (Kidney RCC)
Procedure: as §1

Structure (SMILES) | IC50 [µM]
Cc1ccc2nc(NC(=O)Nc3ccccc3Cl)sc2c1 [C25] | 15
O=C(Nc1nc2ccc([N+](=O)[O-])cc2s1)Nc1ccccc1Cl [C28] | 5
CCOc1ccc2nc(NC(=O)Nc3ccccc3C)sc2c1 [C30] | 15
CCOc1ccc2nc(NC(=O)Nc3ccc(OC)cc3)sc2c1 [C33] | > 25

test system: HuVEC; assay: Boyden chamber migration assay; type: cell-based, human; details: CXCL7 50 ng/ml, 2.5 µmol/L compound
Procedure: CXCL7 or VEGFA-stimulated chemotaxis assays were monitored using modified Boyden chambers containing polycarbonate membranes (8-μm pores, Transwell; Corning, Sigma). Cells were seeded onto the upper side of the filters and chambers were placed on 24-well plates containing CXCL7 (50ng/ml) or VEGFA (50ng/ml). Cell migration was followed for 24 h at 37°C in 5% CO2. Migratory cells on the lower membrane surface were fixed in 3% paraformaldehyde, stained with 0.1% crystal violet.

Structure (SMILES) | CXCL7-dependent migration of HuVECs
Cc1c(F)cccc1NC(=O)Nc1ccc(Cl)c(S(=O)(=O)[C@H]2CCCNC2)c1O [danirixin, reference compound] | no effect

test system: MDA-MD-231; assay: XTT cell viability assay, breast cancer cells; type: cell-based, human; details: Homo sapiens, 48 h, SD 10%, mean of three experiments
Procedure: as §1

Structure (SMILES) | IC50 [µM]
Cc1ccc2nc(NC(=O)Nc3ccccc3Cl)sc2c1 [C25] | > 25
O=C(Nc1nc2ccc([N+](=O)[O-])cc2s1)Nc1ccccc1Cl [C28] | 8
CCOc1ccc2nc(NC(=O)Nc3ccccc3C)sc2c1 [C30] | 12
CCOc1ccc2nc(NC(=O)Nc3ccc(OC)cc3)sc2c1 [C33] | > 25

test system: RCC4; assay: XTT cell viability assay, RCC4 RCC cells; type: cell-based, human; details: Homo sapiens, RCC4, 48 h, SD 10%, mean of three experiments, read-out: IC50 R4 (Kidney RCC)
Procedure: as §1

Structure (SMILES) | IC50 [µM]
Cc1ccc2nc(NC(=O)Nc3ccccc3Cl)sc2c1 [C25] | > 25
O=C(Nc1nc2ccc([N+](=O)[O-])cc2s1)Nc1ccccc1Cl [C28] | 7
CCOc1ccc2nc(NC(=O)Nc3ccccc3C)sc2c1 [C30] | > 25
CCOc1ccc2nc(NC(=O)Nc3ccc(OC)cc3)sc2c1 [C33] | > 25

Source: PMC6691587, “New CXCR1/CXCR2 inhibitors represent an effective treatment for kidney or head and neck cancers sensitive or refractory to reference treatments” (Theranostics, 2019)
